Measurements taken from patent publication US20160158179A1, “NANOEMULSION THERAPEUTIC COMPOSITIONS AND METHODS OF USING THE SAME” (THE REGENTS OF THE UNIVERSITY OF MICHIGAN, priority 2008, published 2016).
Converted amounts (≈) assume the structure as drawn.

Tests used:
[1] = system: H. influenzae clinical isolates; conditions: ATCC H. influenzae 49247 quality control isolate; acceptable QC range; cited from earlier work
[2] = system: H. influenzae clinical isolates; assay: MIC and MBC susceptibility assays (CLSI); assay type: cell-based, Haemophilus influenzae; conditions: Haemophilus influenzae; all H. influenzae strains of Table 6; control antibiotics
Pseudomonas aeruginosa = assay: MIC and MBC determination (CLSI, alamar blue), CF isolates; conditions: Pseudomonas
Burkholderia cenocepacia = assay: as above
[3] = system: Stenotrophomonas maltophilia; assay: as above; conditions: Stenotrophomonas
Acinetobacter baumannii = assay: MIC and MBC determination (CLSI, alamar blue); conditions: Acinetobacter
[4] = system: methicillin-resistant Staphylococcus aureus (MRSA) clinical isolates; assay: MIC and MBC susceptibility assays (CLSI); assay type: cell-based; conditions: MRSA clinical isolates; value at rank 15 of 29
[5] = system: Pseudomonas, Burkholderia, Acinetobacter and Stenotrophomonas; assay: MIC and MBC determination (CLSI, alamar blue), all strains of Example 8

Q: With `CC1(C)S[C@@H]2[C@H](NC(=O)[C@H](N)c3ccccc3)C(=O)N2[C@H]1C(=O)O` [Amp, ampicillin] as the compound, how does the “QC MIC range” value [1] read?
A: B (QC MIC range is 2-8) μg/ml

Q: And the MIC 50 [2]?
A: > 32 µg/mL

Q: What does the source list for `CO[C@@]1(NC(=O)Cc2cccs2)C(=O)N2C(C(=O)O)=C(COC(N)=O)CS[C@@H]21` [Cefoxitin]?
A: MIC 50 (Pseudomonas aeruginosa): >256 µg/mL; MIC 90 (Pseudomonas aeruginosa): >256 µg/mL; MIC 90 (Burkholderia cenocepacia; Burkholderia): 256 µg/mL (≈ 599 µM); MIC 50 [3]: >256 µg/mL; MIC 90 [3]: >256 µg/mL; MIC 50 (Acinetobacter baumannii): >256 µg/mL; MIC 90 (Acinetobacter baumannii): >256 µg/mL

Q: What does the source list for `CC(C)(O/N=C(\C(=O)N[C@@H]1C(=O)N2C(C(=O)[O-])=C(C[n+]3ccccc3)CS[C@H]12)c1csc(N)n1)C(=O)O` [Ceftazidime]?
A: MIC 90 (Burkholderia cenocepacia; Burkholderia): 16 µg/mL (≈ 29.3 µM); MIC 50 (Burkholderia cenocepacia; Burkholderia cenocepacia): 8 µg/mL (≈ 14.6 µM); MIC 90 (Burkholderia cenocepacia; Burkholderia cenocepacia): 16 µg/mL (≈ 29.3 µM); MIC 50 [3]: >32 µg/mL; MIC 90 [3]: >32 µg/mL; MIC 50 (Acinetobacter baumannii): >32 µg/mL; MIC 90 (Acinetobacter baumannii): >32 µg/mL

Q: For `CCC[C@@H]1C[C@@H](C(=O)N[C@@H]([C@H]2O[C@H](SC)[C@H](O)[C@@H](O)[C@H]2O)[C@H](C)Cl)N(C)C1` [Cli, clindamycin], which MIC 50 [2] is on record?
A: 16 µg/mL (≈ 37.6 µM)

Q: Which “MIC50 (15)” value [4] does the source give for `C[C@H]1c2cccc(O)c2C(O)=C2C(=O)[C@]3(O)C(O)=C(C(N)=O)C(=O)[C@@H](N(C)C)[C@@H]3[C@@H](O)[C@@H]21` [Dox] here?
A: 0.25 µg/mL (≈ 0.563 µM)

Q: Which “MIC50 (15)” value [4] does the source give for `CC[C@H]1OC(=O)[C@H](C)[C@@H](O[C@H]2C[C@@](C)(OC)[C@@H](O)[C@H](C)O2)[C@H](C)[C@@H](O[C@@H]2O[C@H](C)C[C@H](N(C)C)[C@H]2O)[C@](C)(O)C[C@@H](C)C(=O)[C@H](C)[C@@H](O)[C@]1(C)O` [Eryth] here?
A: 64 µg/mL (≈ 87.2 µM)

Q: With `C[C@@H](O)[C@H]1C(=O)N2C(C(=O)O)=C(SCCN=CN)C[C@H]12` [Imipenem] as the compound, how does the MIC 90 [5] read?
A: ≥ 2 µg/mL

Q: And the “MIC 50” value [3]?
A: >32 µg/mL

Q: For `C[C@H]1COc2c(N3CCN(C)CC3)c(F)cc3c(=O)c(C(=O)O)cn1c23` [Levo], which “MIC50 (15)” value [4] is on record?
A: 8 µg/mL (≈ 22.1 µM)
